Assay results from patent US10883994B2, “Identification of cancer stem cells markers and use of same for diagnosis and treatment” (Tel HaShomer Medical Research Infrastructure and Services …, priority 2014, dated 2021).
“Also recorded” adds a separate entry of the source.

Key:
[1] = system: MRT cells (ATRT cells); test: Morphology of MRT/ATRT cells after BAPN treatment; assay type: cell-based, human
[2] = system: MRT cells (ATRT cells); test: Cell migration assay (scrape); assay type: cell-based, human; settings: 100 μM BAPN, 48 h
Method: Cell migration assay: Cells were grown overnight, after which the medium was changed and supplemented with 100 μM BAPN. After 48 hours, a scrape was made through the confluent monolayers with a plastic 1 ml pipette tip. Treated and control cells were then photographed at identical time points (24 and 48 hours).

[3] = biological target: T1, LOX (lysyl oxidase) in ATRT cells (Homo sapiens, UniProt P28300); test: LOX activity assay (Amplex Red fluorescence); assay type: biochemical; settings: 100 μM BAPN
T1 construct: endogenous in cells
T1 sequence (P28300 169-417): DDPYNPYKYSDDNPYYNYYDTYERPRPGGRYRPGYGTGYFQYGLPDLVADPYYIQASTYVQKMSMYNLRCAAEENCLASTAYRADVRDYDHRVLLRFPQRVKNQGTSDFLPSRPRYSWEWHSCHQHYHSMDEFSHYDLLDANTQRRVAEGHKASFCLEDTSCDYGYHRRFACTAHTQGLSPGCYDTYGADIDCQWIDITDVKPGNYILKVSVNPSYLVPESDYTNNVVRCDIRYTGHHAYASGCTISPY
Method: LOX Activity Assays: The LOX enzyme activity was measured using the Amplex Red fluorescence assay (AAA Bioquest, 15255), as previously described (15843371). The assay reaction mixture consisted of 50 mM sodium borate (pH 8.2), 1.2 M urea, 50 µM Amplex Red, 0.1 units/ml horseradish peroxidase, and 10 mM 1,5-diaminopentane (cadaverine) substrate. The protein samples were added to the reaction mix, in the presence or absence of 100 μM BAPN, which was then incubated at 37° C. for 30 minutes. The fluorescent product was measured at 590 nm using an […] microplate reader.

[4] = system: Wilms' tumor (WT) Xn cells; test: MTS cell viability assay on Wilms' tumor Xn cells; assay type: cell-based, human; settings: Wilms' tumor Xn cells serially propagated in mice
Method: (§1) MTS—cell viability assay: 5×10^3 cells were plated in triplicates and grown in 96-well plates over-night. The following day the medium was changed and supplemented with various concentrations of BAPN and the cells were further incubated for 48 h. Cell proliferation was measured using CellTiter 96 Aqueous One Solution Cell Proliferation Assay (Promega) according to the manufacturer's instructions. Briefly, the cells were incubated with the MTS solution for 3 hours at 37° C. and absorbance at 492 nm was determined using a microplate reader. Three independent experiments were carried out.

[5] = system: ATRT Xn cells (MRT cells); test: MTS cell viability assay on MRT/ATRT Xn cells; assay type: cell-based, human; settings: 100 μM BAPN, 48 h
Method: as §1

[6] = intermediate Xn passage (P10) MRT cells

N#CCCN [BAPN, β-Aminopropionitrile]
morphological changes on ATRT cells ([1]; P2 cells): nuclear condensation and cell swallowing | morphological changes on MRT cells [1, 6]: nuclear condensation and cell swallowing | ATRT cell migration capacity compared to un-treated cells ([2]; P2 cells): significant inhibited | MRT cell migration capacity compared to un-treated cells [2, 6]: significant inhibited; also recorded: significantly inhibited | LOX activity (in words) [3]: significantly inhibited LOX activity | inhibition of LOX activity ([3]; P3 cells): 81% | inhibition of LOX activity ([3]; P10 cells): 63% | effect on WT cell proliferation [4]: no effect on WT cell proliferation | proliferation in comparison to UT cells (MTS cell viability) ([5]; P2 Xn cells): 47% | proliferation (MTS cell viability) ([5]; intermediate Xn passage (P10) cells, three different experiments): significantly reduced proliferation
